Assay: xn = mol fraction of the nth substance listed
Conditions: 101.3 kPa

CO + CC[n+]1ccn(C)c1C.F[B-](F)(F)F
x2 = 0
Conditions | viscosity [mPa·s]
293.15 K | 0.57
298.15 K | 0.532
303.15 K | 0.498
313.15 K | 0.439
318.15 K | 0.414
323.15 K | 0.39
328.15 K | 0.37
333.15 K | 0.351

CC[n+]1ccn(C)c1C.F[B-](F)(F)F + CO
viscosity [mPa·s]
Conditions | 293.15 K | 298.15 K | 303.15 K | 308.15 K | 313.15 K | 318.15 K | 323.15 K | 328.15 K | 333.15 K
x1 = 0.0165 | 0.863 | 0.803 | 0.75 | 0.701 | 0.658 | 0.619 | 0.583 | 0.55 | 0.522
x1 = 0.0364 | 0.999 | 0.925 | – | 0.801 | 0.752 | 0.706 | – | 0.626 | 0.59
x1 = 0.0608 | 1.27 | 1.177 | 1.096 | – | 0.953 | 0.893 | 0.839 | 0.79 | 0.749
x1 = 0.0915 | 1.45 | – | 1.26 | – | 1.086 | 1.012 | – | – | 0.816
x1 = 0.1313 | – | 1.77 | – | – | 1.4 | 1.3 | – | – | –
x1 = 0.1848 | 2.75 | 2.5 | 2.28 | 2.09 | – | 1.77 | 1.63 | 1.52 | –
x1 = 0.2607 | 4.43 | – | 3.6 | 3.28 | 2.99 | 2.74 | 2.54 | 2.34 | 2.17
x1 = 0.3768 | 9.29 | 8.18 | 7.17 | 6.85 | 6.15 | – | 5.01 | – | 4.13

Reference: a compilation of properties of binary mixtures (doi:10.1016/j.jct.2022.106923)
